Read-outs that look alike come from different tables or passages of the source.

The assay deals with A2780cis cells. The assay is described as follows: Photo- and cytotoxic activity determination (MTT), A2780cis cells, normoxia or hypoxia. The class given is cell-based. The following applies: A2780cis; for inhibition at 250 µM: 2 h incubation in the dark, 48 h drug-free recovery. An excerpt: Having shown that the Ir(III)-COUPY conjugates can sensitize both type I and II ROS through spectroscopic techniques and readily internalize into living cells, their photocytotoxicity was screened in various cancer cell lines. This screening included two representative melanoma cell lines (human A375 and […] human SK-MEL-28) and cancer cells with resistance to the clinical drug cisplatin. For the latter, both sensitive and cisplatin-resistant ovarian cancer cells (A2780 and A2780cis) as well as HeLa cells, which also show a degree of chemoresistance to the platinum anticancer drug in vitro,[54] were used. For the determination of dark and light cytotoxicity, dose–response curves were assayed from both conditions to provide the correspondent IC50 values, which correspond to the concentration needed for inhibition of cell growth by 50%. Phototherapeutic index (PI) was calculated as the ratio of dark to light IC50 value for each compound.
A375, HeLa, and SK-MEL-28 cells were cultured in Dulbecco’s modified Eagle medium (DMEM) supplemented with 10% FBS, L-glutamine, and 1% penicillin–streptomycin. A2780 and A2780cis cells were grown in RPMI-1640 cell medium supplemented with 10% fetal bovine serum (FBS) and 2 mM L-glutamine. Acquired resistance to cisplatin in the A2780cis cell line was maintained by adding cisplatin 1 μM to culture medium every second passage. Cells were cultured in a humidified incubator at 310 K with 5% CO2 atmosphere and subcultured two or three times a week with appropriate densities and were confirmed to be mycoplasma-free using a standard Hoechst DNA staining method.
A2780, A2780cis, HeLa, A375, and SK-MEL-28 cells were maintained at logarithmic growth-phase and cultured in 96-well plates at a density of 5000 cells/well in complete medium for 24 h at 310 K, 5% CO2 in a humidified incubator. For hypoxia experiments, a hypoxia condition was set up by Tissue Culture Service at University of Murcia using nitrogen (N2) to displace O2 down to a minimum of 2% in a Forma Steri-Cycle i160 incubator (Thermo Fisher Scientific). […] A light-based treatment schedule was performed as follows: 1 h incubation with the compounds in the dark, followed by 1 h incubation under irradiation conditions by placing the Photoreactor EXPO-LED from Luzchem (Canada) fitted with green lamps (final light intensity applied of 1.5 mW/cm^2 at λmax = 520 nm) inside the CO2 incubator. All the cell culture plates subjected to light irradiation included untreated controls to verify that cell viability was not affected by light. Then, treatment-containing media was removed, and fresh media was added for a 48 h cell recovery period; the temperature throughout the experiment remained at 310 K. Dark control samples were placed in the same dark conditions and then kept incubated for 1 h in the dark in the humidified CO2 incubator. Medium was then aspirated by suction, cells were loaded with 50 μL of MTT solution (1 mg/mL) for additional 4 h and then removed, and 50 μL of DMSO was added to solubilize the purple formazan crystals formed in active cells. The absorbance was measured at 570 nm using a microplate reader (FLUOstar Omega), and the IC50 values were calculated based on the inhibitory rate curves using the following equation [drawing 4] 4 where I represents the percentage inhibition of viability observed, Imax is the maximal inhibitory effect, IC50 is the concentration that inhibits 50% of maximal growth, C is the concentration of the treatment, and n is the slope of the semi-logarithmic dose–response sigmoidal curves. The non-linear fitting was performed using SigmaPlot 14.0 software. All experiments were performed in three independent studies with n = 3 replicates per concentration level. For a detailed phototoxicity procedure, ref ([43]) includes technical explanations.

On to `NCC(=O)CCC(=O)O` [5-ALA, 5-aminolevulinic acid, reference compound], for which the inhibition – broadly, the relative decrease from the control value, in per cent – at 250 µM (hypoxia, read-out: Partial inhibition (% of cell growth inhibition with respect to untreated controls), Hypoxia) was determined as 1 ± 0.2% and the inhibition at 250 µM (normoxia, read-out: Partial inhibition (% of cell growth inhibition with respect to untreated controls), Normoxia) came out at 3.5 ± 0.4%. Besides, the concentration for half-maximal inhibition (IC50) (in general, the concentration that gives 50% inhibition) reads like this: (hypoxia 2% O2, 1 h incubation + 1 h green light 520 nm, 48 h drug-free, read-out: Hypoxia 520 nm IC50) more than 250 µM; (hypoxia 2% O2, dark, tested up to 250 μM, read-out: Hypoxia Dark IC50) more than 250 µM; (hypoxia, 520 nm, read-out: A2780cis Light 520 nm IC50 (microM) Hypoxia) more than 250 µM; (hypoxia, dark, read-out: A2780cis Dark IC50 (microM) Hypoxia) more than 250 µM; (normoxia 21% O2, dark, tested up to 250 μM, read-out: Normoxia Dark IC50) more than 250 µM; (normoxia, 520 nm, read-out: A2780cis Light 520 nm IC50 (microM) Normoxia) 62 ± 12 µM. Further, where the note is “normoxia, dark, up to 250 microM, read-out: A2780cis Dark IC50 (microM) Normoxia”, the 50% inhibitory concentration (IC50) is more than 250 µM. Also, where the note is “normoxia 21% O2, 520 nm, dark tested up to 250 μM”, the “Normoxia PI (phototherapeutic index)” value is given as more than 4.0.

The values above are taken from paper PMC10291553, “Exploring Structure–Activity Relationships in Photodynamic Therapy Anticancer Agents Based on Ir(III)-COUPY Conjugates” (Journal of Medicinal Chemistry, 2023).
